Assay in all cases: inhibition of tumour cell growth, NCI panel, 48 h
The test system of test [1] is HCT-15 colon.
Test [2] has as its system HL-60(TB) leukemia.
In test [3] the test system is EKVX NSCLC.
Test [4] relates to HOP-92 NSCLC.
Test [5] relates to IGROV1 ovarian.
Test [6] concerns SF-539 CNS.
Test [7] concerns U251 CNS.
Test [8] relates to OVCAR-4 ovarian.
Test [9] has as its system 786-0 renal.
Test [10] has as its system TK-10 renal.

Structures are written as SMILES.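 Where inhibition never reached the appropriate level, the endpoint shown equals the highest concentration tested. Otherwise, values were interpolated linearly from a five-concentration, 48-hour dose response in 96-well plates. GI50 marks 50% less growth. At the TGI there is no net growth.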

For `O=C(CO[N+](=O)[O-])OCC(=O)c1ccccc1`, the TGI in test [1], in test [2], in [3], in [4], in test [5] and in test [6] was > 100 µM in each case. Moreover, the TGI in test [7], in [8], in test [9] and in test [10] was > 100 µM throughout.

For `CN1C/C(=C\c2ccco2)c2nc(N)nc(-c3ccco3)c2C1`, the TGI in test [1], in test [2], in [3], in test [5], in test [6] and in test [7] was > 100 µM in each case. The TGI in test [9] and in test [10] was > 100 µM throughout.

On to `Cc1cc2c(SCc3ccccc3Cl)nc(N)nc2nc1C`, for which the TGI in [1], in [2], in test [3], in test [4], in test [5] and in test [6] was > 100 µM throughout. Moreover, the TGI in test [7], in test [8], in test [9] and in [10] was > 100 µM each time.

Regarding `COc1cc([C@H]2c3cc(O)c(OC)cc3C[C@]3(O)[C@@H]2CO[C@@H]3O)ccc1O`, the TGI in test [1], in test [2], in test [3], in test [4], in [5] and in test [6] was > 100 µM throughout. The TGI in test [7], in [8], in test [9] and in test [10] was > 100 µM throughout.

Consider `O=C(NCc1cccnc1)c1ccc([N+](=O)[O-])o1`, for which the GI50 in test [1] was 0.647 µM; in test [2], 8.44 µM; in test [3] it was 13.3 µM; in [4] it was > 17.2 µM; in [5] it was 4.52 µM; in [6], 1.12 µM. For the same molecule, the GI50 in test [7] was 1.03 µM; in test [8] it was 6.22 µM; in test [9], 2.9 µM; in test [10], 3.33 µM. The TGI was 1.76 µM in test [1]; 25 µM in [2]; > 32.5 µM in [3]; 32.2 µM in test [4]; > 24.5 µM in [5]; 3.76 µM in test [6]. The TGI was 3.83 µM in test [7], > 19.8 µM in [8], 16.6 µM in [9] and 10.4 µM in [10].

Regarding `CC1=C2[C@@H](c3ccccc3)C3C=CC2(C=C3C(F)(F)F)N(C(=O)NC2CCCCC2)C1=O` (stereo partly drawn), the TGI in test [1] is > 100 µM; in [2], 39.2 µM; in test [3], > 100 µM; in [4], > 100 µM; in test [5], > 100 µM; in test [6] it was > 100 µM. The TGI in test [7], in [8], in [9] and in test [10] was > 100 µM each time.

Regarding `O=NNc1nc(-c2ccccn2)nc2ccccc12`, the TGI was 14.7 µM in [1]; > 100 µM in [2]; > 100 µM in test [3]; > 100 µM in test [5]; > 100 µM in [6]; > 100 µM in test [7]. The values for the TGI in test [8], in test [9] and in test [10] were > 100 µM, 39.9 µM and > 100 µM, respectively.

In the case of `Nc1ccc2ncc(Nc3ccc(Cl)c(Cl)c3)nc2c1`, the TGI is > 100 µM in [1]; 38.3 µM in test [2]; 88.9 µM in test [3]; 52.3 µM in [4]; 40.4 µM in test [6]; 80.1 µM in test [7]. Besides, the TGI in test [8], in [9] and in test [10] was > 100 µM throughout.

Take `C=CCCC1(CCP(=O)(c2ccccc2)c2ccccc2)OCCO1`: the TGI in test [1], in [2], in test [3], in test [5], in test [6] and in test [7] was > 100 µM throughout. The TGI in test [9] and in test [10] was > 100 µM in each case.

For the molecule `COc1cccc(OC)c1/C=N\N1C(=O)c2ccccc2C1=O`, the TGI is > 100 µM in test [1]; 79.8 µM in test [2]; > 100 µM in test [3]; > 100 µM in test [4]; > 100 µM in test [5]; 52.4 µM in [6]. For the same molecule, the TGI in test [8], in test [9] and in [10] was > 100 µM each time.

As to `O=C1COc2cc3c(cc2N1)SCC(=O)N3`, the TGI in test [2], in test [3], in [4], in test [5], in test [6] and in test [8] was > 100 µM throughout. The TGI in test [9] and in [10] was > 100 µM each time.

Turning to `CCOC(=O)/C(=C/c1ccc[nH]1)P(=O)(OCC)OCC`, the TGI in test [2], in [3], in test [4], in test [6], in [7] and in test [8] was > 100 µM throughout. In addition, the TGI in test [9] and in test [10] was > 100 µM throughout.

For the molecule `Cc1cc2c(=O)cc(-c3ccncc3)oc2c(C(=O)O)c1C`, the TGI in test [1], in test [2], in [3], in test [4], in [5] and in test [6] was > 100 µM throughout. Besides, the TGI in test [7], in [9] and in [10] was > 100 µM in each case.

As to `O=C1C(=O)c2c(ccc3ccccc23)-c2ccccc21`, the GI50 in test [1] is 1.02 µM; in test [2] it was 2.83 µM; in test [3], 1.98 µM; in test [4] it was 1.91 µM; in test [6], 1.89 µM; in test [7], 1.67 µM. Moreover, the GI50 in [8] was 1.21 µM; in test [9], 3.13 µM; in [10] it was 2.17 µM. For the same molecule, the TGI was 6.43 µM in test [1]; 5.85 µM in [2]; 5.39 µM in [3]; 5.52 µM in test [4]; 4.07 µM in [6]; 3.56 µM in test [7]. The TGI in [8] is 2.5 µM; in [9], > 100 µM; in test [10], 7.54 µM.

As to `Cn1nc(-c2ccccc2)c(C(=O)/C=C/c2ccccc2)c(N2CCCC2)c1=O`, the TGI worked out at 72.5 µM in [1]; 22.7 µM in test [2]; 53.5 µM in test [3]; 6.23 µM in [4]; 55.7 µM in [5]; 26.3 µM in [6]. Moreover, the TGI in test [7] was determined as 26.4 µM; in test [9] it was 33.4 µM; in [10], 49.3 µM.

For the molecule `COc1cccc2c(Nc3ccc(C(=O)NCCN4CCNCC4)cc3)cc(-c3ccccc3)nc12`, the GI50 was 57.8 µM in test [1]; > 100 µM in [3]; 95 µM in [4]; 32.1 µM in test [5]; 22.9 µM in test [6]; 34.8 µM in test [7]. The GI50 in test [8] was 17.4 µM; in test [9], 51.1 µM; in [10], 57 µM. The TGI is > 100 µM in test [1]; > 100 µM in [3]; > 100 µM in test [4]; > 100 µM in test [5]; 57 µM in [6]; > 100 µM in test [7]. Further, the values for the TGI in test [8], in test [9] and in [10] were 74.2 µM, > 100 µM and > 100 µM, respectively.

With `CCNC(=O)O/N=C1/C=C2CC[C@@H]3C(CC[C@@]4(C)C3CC[C@@H]4OC(=O)NCC)[C@@]2(C)CC1` (stereo partly drawn), the TGI is 11.2 µM in [1]; 16.2 µM in [3]; 16.7 µM in [4]; > 100 µM in test [5]; > 100 µM in test [6]; 5.28 µM in test [7]. The TGI was found to be 6.39 µM in test [8], 10.7 µM in test [9] and 8.8 µM in test [10].

In the case of `CC1CC2C(=O)N(c3ccccc3)C(=O)C2c2[nH]c3ccccc3c21` (stereo not drawn), the TGI in test [1], in test [2], in test [3], in test [5], in [6] and in test [7] was > 100 µM each time. Further, the TGI in test [8], in [9] and in [10] was > 100 µM throughout.

For `Cc1[nH]n(C(=O)c2ccc(Cl)cc2)c(=O)c1/C=C1\C(O)=CC(=O)c2ccccc21`, the TGI in test [2], in test [3], in test [4], in test [5], in test [6] and in test [7] was > 100 µM throughout. Besides, the TGI in test [8], in test [9] and in test [10] was > 100 µM throughout.

As for `Cc1nc(-c2cccnc2)sc1C(=O)/C=C/c1ccc(Cl)cc1Cl`, the TGI in [1], in test [2], in test [3], in [4], in test [5] and in test [6] was > 100 µM in each case. Further, the TGI in [7], in [9] and in test [10] was > 100 µM each time.

For the molecule `CCCCc1c2c(nc3c1CC/C(=C\c1ccccc1)C3=O)CCCC2`, the TGI in test [1] was 12.3 µM; in test [2], 10.3 µM; in test [3] it was 24.9 µM; in test [5] it was 15.2 µM; in test [6] it was 4.71 µM; in [7], 10.8 µM. The TGI came to 5.64 µM in [9] and 21.1 µM in test [10].

Take `CC(C)C12CCC3(CCC4C(C)(C(=O)O)CCCC4(C)C3C1)C(CN)C2` (stereo not drawn): the TGI is > 100 µM in test [1]; 62 µM in test [3]; > 100 µM in [4]; > 100 µM in test [5]; 78.9 µM in test [6]; > 100 µM in [7]. For the same molecule, the TGI in [8] was > 100 µM; in [9] it was 54.4 µM; in [10], > 100 µM.

Regarding `CCOC(=O)Oc1ccc2[nH]c3c(C)cc(N)c(C)c3c2c1`, the TGI in test [1], in [2], in test [3], in [6], in test [8] and in [9] was > 100 µM in each case. Further, in test [10], the TGI is > 100 µM.

On to `Clc1ccc(N=CNc2ccc(-c3nc4ccccc4[nH]3)cc2)cc1`, for which the GI50 was 33.1 µM in test [1]; 0.631 µM in test [2]; 0.482 µM in [3]; 59.1 µM in [4]; > 100 µM in test [5]; 20.9 µM in [7]. Moreover, the GI50 in [8] is 48.4 µM; in test [9], 68.1 µM; in test [10], 7.52 µM. Moreover, the TGI is > 100 µM in test [1]; > 100 µM in test [2]; 34.5 µM in test [3]; > 100 µM in test [4]; > 100 µM in [5]; > 100 µM in [7]. For the same molecule, the TGI in test [8], in [9] and in test [10] was > 100 µM throughout.

For the molecule `Cn1ncc2c(c1=O)Nc1ccccc1S2(=O)=O`, the TGI in test [1] was > 100 µM; in test [3], > 100 µM; in test [4] it was > 100 µM; in [5], > 100 µM; in test [6], 49 µM; in test [7], > 100 µM. The TGI is > 100 µM in [8], 75.3 µM in test [9] and > 100 µM in test [10].

With `COC(=O)CCSC(=O)Nc1ccccc1Cl`, the TGI in test [1], in test [2], in test [3], in [6], in test [7] and in test [8] was > 100 µM in each case. The TGI in test [9] and in test [10] was > 100 µM in each case.

For the origin of these results see PubChem BioAssay (NCI).
